Numbered stars: 1 amine (or outer) side, 2 acyl side, 3 side chain; on linkers, the order of the positions; unused ones are H or OH. Bridge positions count the residues as written; N and C are the ends. Square brackets hold non-standard residues; d marks the D form. Side chains are listed from the residue outwards. Peptide text beside a SMILES is read from it. I, II: the chains in the order shown. * marks the point of attachment. X10 = C[N+](C)(CCNC(=O)CCOCCOCCOCCOCCOCCOCCOCCOCCNC(=O)CN1CCN(CC(=O)O)CCN(CC(=O)O)CCN(CC(=O)O)CC1)CC(=O)*; DOTA = O=C(O)CN1CCN(CC(=O)O)CCN(CC(=O)*)CCN(CC(=O)O)CC1; PEG8 = NCCOCCOCCOCCOCCOCCOCCOCCOCCC(=O)O; X6 = C[C@@H]1CN([*:1])[C@@H]1C(=O)[*:2]; γGlu = O=C(O)[C@H](CCC(=O)[*:2])N[*:1]; 2Nal = N[C@@H](Cc1ccc2ccccc2c1)C(=O)O; X8 = CC1(C)CN([*:1])[C@@H]1C(=O)[*:2]; X12 = C[N+](C)(CCN[*:1])CC(=O)[*:2]; X7 = C[C@@]1(C(=O)[*:2])CCN1[*:1]
Biological target: T1, human DLL3 (Homo sapiens, UniProt Q9NYJ7)
T1 sequence (Q9NYJ7 27-618): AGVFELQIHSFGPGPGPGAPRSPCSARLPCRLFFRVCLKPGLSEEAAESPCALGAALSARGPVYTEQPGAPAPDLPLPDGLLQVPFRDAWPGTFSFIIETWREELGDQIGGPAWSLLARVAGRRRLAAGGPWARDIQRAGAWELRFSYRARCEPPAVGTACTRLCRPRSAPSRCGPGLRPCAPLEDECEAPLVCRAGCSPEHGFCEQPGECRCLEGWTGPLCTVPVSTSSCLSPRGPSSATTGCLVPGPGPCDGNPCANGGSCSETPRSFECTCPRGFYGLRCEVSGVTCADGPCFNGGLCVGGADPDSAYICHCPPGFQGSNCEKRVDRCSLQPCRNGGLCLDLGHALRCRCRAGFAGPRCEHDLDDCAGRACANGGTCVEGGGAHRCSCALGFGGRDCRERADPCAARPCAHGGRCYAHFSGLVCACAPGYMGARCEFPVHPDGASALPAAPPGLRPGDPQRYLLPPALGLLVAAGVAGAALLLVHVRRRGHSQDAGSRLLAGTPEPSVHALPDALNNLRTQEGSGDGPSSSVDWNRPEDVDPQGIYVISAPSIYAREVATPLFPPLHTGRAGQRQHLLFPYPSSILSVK
Assay: Affinity determination by Surface Plasmon Resonance (SPR)
Type: binding
Settings: not given
Method in brief: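 Kinetic and affinity constants were derived by fitting sensorgrams to a 1:1 binding model. Graded compound concentrations flowed at 100 μL/minute in 20 mM phosphate running buffer with 2% DMSO over streptavidin-immobilized biotinylated human DLL3, reference-subtracted.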

Structure (SMILES)	Kd
CC[C@H](C)[C@H](NC(=O)[C@@H](NC(=O)[C@H](Cc1c[nH]c2ccccc12)NC(C)=O)[C@@H](C)O)C(=O)N[C@H]1CSSC[C@@H](C(=O)N[C@@H](Cc2c[nH]c3ccccc23)C(=O)N2CCC[C@H]2C(=O)N[C@H](CCCCNC(=O)C[N+](C)(C)CCNC(=O)CCOCCOCCOCCOCCOCCOCCOCCOCCNC(=O)CN2CCN(CC(=O)O)CCN(CC(=O)O)CCN(CC(=O)O)CC2)C(N)=O)NC(=O)[C@H](CC(=O)O)NC(=O)[C@H](Cc2c[nH]cn2)NC(=O)[C@H](Cc2ccc3ccccc3c2)NC(=O)[C@H](CC(N)=O)NC(=O)[C@H](CC(N)=O)NC1=O [compound 363, Ac-W-T-I-C(3)-N-N-(2Nal)-H-D-C(3)-W-P-[D-Lys(SP6-PEG8-DOTA)]-NH2] (Ac-WTICNN[2Nal]HDCWP[dK](X10)-NH2; disulfide 4-10)	< 1 nM

Same assay, conditions: 25° C., biotinylated human DLL3 immobilized on streptavidin sensor chip, 1:1 binding model; read-out: SPR KD

Structure (SMILES)	Kd
CC[C@H](C)[C@H](NC(=O)[C@@H](NC(=O)[C@H](Cc1c[nH]c2ccccc12)NC(C)=O)[C@@H](C)O)C(=O)N[C@H]1CSSC[C@@H](C(=O)N[C@@H](Cc2c[nH]c3ccccc23)C(=O)N2CCC[C@H]2C(=O)N[C@H](CCCCNC(=O)[C@H]2CCCN2C(=O)CCOCCOCCOCCOCCOCCOCCOCCOCCNC(=O)CN2CCN(CC(=O)O)CCN(CC(=O)O)CCN(CC(=O)O)CC2)C(N)=O)NC(=O)[C@H](CC(=O)O)NC(=O)[C@H](Cc2cnc[nH]2)NC(=O)[C@H](Cc2ccc3ccccc3c2)NC(=O)[C@H](CC(N)=O)NC(=O)[C@H](CC(N)=O)NC1=O [compound 356, Ac-W-T-I-C(3)-N-N-(2Nal)-H-D-C(3)-W-P-[D-Lys((D-Pro)-PEG8-DOTA)]-NH2] (Ac-WTICNN[2Nal]HDCWP[dK]([dP-PEG8-DOTA])-NH2; disulfide 4-10)	< 1 nM
CC[C@H](C)[C@H](NC(=O)[C@@H](NC(=O)[C@H](Cc1c[nH]c2ccccc12)NC(C)=O)[C@@H](C)O)C(=O)N[C@H]1CSSC[C@@H](C(=O)N[C@@H](Cc2c[nH]c3ccccc23)C(=O)N2CCC[C@H]2C(=O)N2CCC[C@@H]2C(=O)N2CCC[C@@H]2C(=O)N2CCC[C@@H]2C(=O)NCCOCCOCCOCCOCCOCCOCCOCCOCCC(=O)N[C@H](CCCCNC(=O)CN2CCN(CC(=O)O)CCN(CC(=O)O)CCN(CC(=O)O)CC2)C(N)=O)NC(=O)[C@H](CC(=O)O)NC(=O)[C@H](Cc2c[nH]cn2)NC(=O)[C@H](Cc2ccc3ccccc3c2)NC(=O)[C@H](CC(N)=O)NC(=O)[C@H](CC(N)=O)NC1=O [compound 357, Ac-W-T-I-C(3)-N-N-(2Nal)-H-D-C(3)-W-P-(D-Pro)3-PEG8-[D-Lys(DOTA)]-NH2] (Ac-WTICNN[2Nal]HDCWP[dP][dP][dP][PEG8][dK](DOTA)-NH2; disulfide 4-10)	< 1 nM
CC[C@H](C)[C@H](NC(=O)[C@@H](NC(=O)[C@H](Cc1c[nH]c2ccccc12)NC(C)=O)[C@@H](C)O)C(=O)N[C@H]1CSSC[C@@H](C(=O)N[C@@H](Cc2c[nH]c3ccccc23)C(=O)N2CCC[C@H]2C(=O)N[C@H](CCCCNC(=O)[C@H]2CCCN2C(=O)[C@H]2CCCN2C(=O)[C@H]2CCCN2C(=O)CCOCCOCCOCCOCCOCCOCCOCCOCCNC(=O)CN2CCN(CC(=O)O)CCN(CC(=O)O)CCN(CC(=O)O)CC2)C(N)=O)NC(=O)[C@H](CC(=O)O)NC(=O)[C@H](Cc2c[nH]cn2)NC(=O)[C@H](Cc2ccc3ccccc3c2)NC(=O)[C@H](CC(N)=O)NC(=O)[C@H](CC(N)=O)NC1=O [compound 358, Ac-W-T-I-C(3)-N-N-(2Nal)-H-D-C(3)-W-P-[D-Lys((D-Pro)3-PEG8-DOTA)]-NH2] (Ac-WTICNN[2Nal]HDCWP[dK]([dP-dP-dP-PEG8-DOTA])-NH2; disulfide 4-10)	< 1 nM
CC[C@H](C)[C@H](NC(=O)[C@@H](NC(=O)[C@H](Cc1c[nH]c2ccccc12)NC(C)=O)[C@@H](C)O)C(=O)N[C@H]1CSSC[C@@H](C(=O)N[C@@H](Cc2c[nH]c3ccccc23)C(=O)N2CC[C@@]2(C)C(=O)N[C@H](CCCCNC(=O)CN2CCN(CC(=O)O)CCN(CC(=O)O)CCN(CC(=O)O)CC2)C(N)=O)NC(=O)[C@H](CC(=O)O)NC(=O)[C@H](Cc2c[nH]cn2)NC(=O)[C@H](Cc2ccc3ccccc3c2)NC(=O)[C@H](CC(N)=O)NC(=O)[C@H](CC(N)=O)NC1=O [compound 360, Ac-W-T-I-C(3)-N-N-(2Nal)-H-D-C(3)-W-aMe-Aze-[D-Lys(DOTA)]-NH2] (Ac-WTICNN[2Nal]HDCW[X7][dK](DOTA)-NH2; disulfide 4-10)	< 1 nM
CC[C@H](C)[C@H](NC(=O)[C@@H](NC(=O)[C@H](Cc1c[nH]c2ccccc12)NC(C)=O)[C@@H](C)O)C(=O)N[C@H]1CSSC[C@@H](C(=O)N[C@@H](Cc2c[nH]c3ccccc23)C(=O)N2CCC[C@H]2C(=O)N[C@H](CCCCNC(=O)CNC(=O)CNC(=O)[C@H](CO)NC(=O)CNC(=O)CNC(=O)[C@H](CO)NC(=O)CN2CCN(CC(=O)O)CCN(CC(=O)O)CCN(CC(=O)O)CC2)C(N)=O)NC(=O)[C@H](CC(=O)O)NC(=O)[C@H](Cc2c[nH]cn2)NC(=O)[C@H](Cc2ccc3ccccc3c2)NC(=O)[C@H](CC(N)=O)NC(=O)[C@H](CC(N)=O)NC1=O [compound 365, Ac-W-T-I-C(3)-N-N-(2Nal)-H-D-C(3)-W-P-[D-Lys(G-G-S-G-G-S-DOTA)]-NH2] (I: Ac-WTICNN[2Nal]HDCWP[dK]-NH2 / II: {DOTA}-SGGSGG; disulfide I:4-I:10; amide I:13-II:C)	< 1 nM

The remaining lines, values ahead:

Kd	Structure (SMILES)
< 1 nM	CC[C@H](C)[C@H](NC(=O)[C@@H](NC(=O)[C@H](Cc1c[nH]c2ccccc12)NC(C)=O)[C@@H](C)O)C(=O)N[C@H]1CSSC[C@@H](C(=O)N[C@@H](Cc2c[nH]c3ccccc23)C(=O)N2CCC[C@H]2C(=O)N[C@H](CCCCNC(=O)CC[C@H](NC(=O)CN2CCN(CC(=O)O)CCN(CC(=O)O)CCN(CC(=O)O)CC2)C(=O)O)C(N)=O)NC(=O)[C@H](CC(=O)O)NC(=O)[C@H](Cc2cnc[nH]2)NC(=O)[C@H](Cc2ccc3ccccc3c2)NC(=O)[C@H](CC(N)=O)NC(=O)[C@H](CC(N)=O)NC1=O [compound 354, Ac-W-T-I-C(3)-N-N-(2Nal)-H-D-C(3)-W-P-[D-Lys(gE-DOTA)]-NH2] (Ac-WTICNN[2Nal]HDCWP[dK]([γGlu-DOTA])-NH2; disulfide 4-10)
< 1 nM	CC[C@H](C)[C@H](NC(=O)[C@@H](NC(=O)[C@H](Cc1c[nH]c2ccccc12)NC(C)=O)[C@@H](C)O)C(=O)N[C@H]1CSSC[C@@H](C(=O)N[C@@H](Cc2c[nH]c3ccccc23)C(=O)N2CCC[C@H]2C(=O)N[C@H](CCCCNC(=O)CC[C@H](NC(=O)CC[C@H](NC(=O)CC[C@H](NC(=O)CN2CCN(CC(=O)O)CCN(CC(=O)O)CCN(CC(=O)O)CC2)C(=O)O)C(=O)O)C(=O)O)C(N)=O)NC(=O)[C@H](CC(=O)O)NC(=O)[C@H](Cc2cnc[nH]2)NC(=O)[C@H](Cc2ccc3ccccc3c2)NC(=O)[C@H](CC(N)=O)NC(=O)[C@H](CC(N)=O)NC1=O [compound 355, Ac-W-T-I-C(3)-N-N-(2Nal)-H-D-C(3)-W-P-[D-Lys(gE-gE-gE-DOTA)]-NH2] (Ac-WTICNN[2Nal]HDCWP[dK]([γGlu-γGlu-γGlu-DOTA])-NH2; disulfide 4-10)
< 1 nM	CC[C@H](C)[C@H](NC(=O)[C@@H](NC(=O)[C@H](Cc1c[nH]c2ccccc12)NC(C)=O)[C@@H](C)O)C(=O)N[C@H]1CSSC[C@@H](C(=O)N[C@@H](Cc2c[nH]c3ccccc23)C(=O)N2C[C@@H](C)[C@H]2C(=O)N[C@H](CCCCNC(=O)CN2CCN(CC(=O)O)CCN(CC(=O)O)CCN(CC(=O)O)CC2)C(N)=O)NC(=O)[C@H](CC(=O)O)NC(=O)[C@H](Cc2c[nH]cn2)NC(=O)[C@H](Cc2ccc3ccccc3c2)NC(=O)[C@H](CC(N)=O)NC(=O)[C@H](CC(N)=O)NC1=O [compound 359, Ac-W-T-I-C(3)-N-N-(2Nal)-H-D-C(3)-W-R-3Me-Aze-[D-Lys(DOTA)]-NH2] (Ac-WTICNN[2Nal]HDCW[X6][dK](DOTA)-NH2; disulfide 4-10)
< 1 nM	CC[C@H](C)[C@H](NC(=O)[C@@H](NC(=O)[C@H](Cc1c[nH]c2ccccc12)NC(C)=O)[C@@H](C)O)C(=O)N[C@H]1CSSC[C@@H](C(=O)N[C@@H](Cc2c[nH]c3ccccc23)C(=O)N2CC(C)(C)[C@H]2C(=O)N[C@H](CCCCNC(=O)CN2CCN(CC(=O)O)CCN(CC(=O)O)CCN(CC(=O)O)CC2)C(N)=O)NC(=O)[C@H](CC(=O)O)NC(=O)[C@H](Cc2c[nH]cn2)NC(=O)[C@H](Cc2ccc3ccccc3c2)NC(=O)[C@H](CC(N)=O)NC(=O)[C@H](CC(N)=O)NC1=O [compound 362, Ac-W-T-I-C(3)-N-N-(2Nal)-H-D-C(3)-W-3Me2-Aze-[D-Lys(DOTA)]-NH2] (Ac-WTICNN[2Nal]HDCW[X8][dK](DOTA)-NH2; disulfide 4-10)
< 1 nM	CC[C@H](C)[C@H](NC(=O)[C@@H](NC(=O)[C@H](Cc1c[nH]c2ccccc12)NC(C)=O)[C@@H](C)O)C(=O)N[C@H]1CSSC[C@@H](C(=O)N[C@@H](Cc2c[nH]c3ccccc23)C(=O)N2CCC[C@H]2C(=O)NCC[N+](C)(C)CC(=O)NCCOCCOCCOCCOCCOCCOCCOCCOCCC(=O)N[C@H](CCCCNC(=O)CN2CCN(CC(=O)O)CCN(CC(=O)O)CCN(CC(=O)O)CC2)C(N)=O)NC(=O)[C@H](CC(=O)O)NC(=O)[C@H](Cc2c[nH]cn2)NC(=O)[C@H](Cc2ccc3ccccc3c2)NC(=O)[C@H](CC(N)=O)NC(=O)[C@H](CC(N)=O)NC1=O [compound 364, Ac-W-T-I-C(3)-N-N-(2Nal)-H-D-C(3)-W-P-SP6-PEG8-[D-Lys(DOTA)]-NH2] (Ac-WTICNN[2Nal]HDCWP[X12][PEG8][dK](DOTA)-NH2; disulfide 4-10)
